Assays:
barnyardgrass [1] = experiment: Test A preemergence; type: in vivo, Echinochloa crus-galli
Procedure, shortened: (§1)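 Greenhouse pot test, loam/sand soil. Formulation: non-phytotoxic solvent mix plus surfactant. Pre: directed spray onto soil after sowing. Post: plants at 1–2 leaf, 2–10 cm. Rated visually vs untreated controls at ~10 d, 0 (no effect) to 100 (complete control).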

kochia [2] = experiment: Test A preemergence; type: in vivo, Kochia scoparia
Procedure, shortened: as §1

ragweed [3] = experiment: Test A preemergence; type: in vivo, Ambrosia elatior
Procedure, shortened: as §1

Italian ryegrass [4] = experiment: Test A preemergence; type: in vivo, Lolium multiflorum
Procedure, shortened: as §1

giant foxtail [5] = experiment: Test A preemergence; type: in vivo, Setaria faberii
Procedure, shortened: as §1

pigweed [6] = experiment: Test A preemergence; type: in vivo, Amaranthus retroflexus
Procedure, shortened: as §1

barnyardgrass [7] = experiment: Test A postemergence; type: in vivo, Echinochloa crus-galli; conditions: 0 to 100 scale, 0 no effect, 100 complete control
Procedure, shortened: as §1

kochia [8] = experiment: Test A postemergence; type: in vivo, Kochia scoparia; conditions: 0 to 100 scale, 0 no effect, 100 complete control
Procedure, shortened: as §1

ragweed [9] = experiment: Test A postemergence; type: in vivo, Ambrosia elatior; conditions: 0 to 100 scale, 0 no effect, 100 complete control
Procedure, shortened: as §1

Italian ryegrass [10] = experiment: Test A postemergence; type: in vivo, Lolium multiflorum; conditions: 0 to 100 scale, 0 no effect, 100 complete control
Procedure, shortened: as §1

giant foxtail [11] = experiment: Test A postemergence; type: in vivo, Setaria faberii; conditions: 0 to 100 scale, 0 no effect, 100 complete control
Procedure, shortened: as §1

pigweed [12] = experiment: Test A postemergence; type: in vivo, Amaranthus retroflexus; conditions: 0 to 100 scale, 0 no effect, 100 complete control
Procedure, shortened: as §1

wheat = experiment: Test A postemergence; type: in vivo, Triticum aestivum; conditions: 0 to 100 scale, 0 no effect, 100 complete control
Procedure, shortened: as §1

corn = experiment: Test A postemergence; type: in vivo, Zea mays; conditions: 0 to 100 scale, 0 no effect, 100 complete control
Procedure, shortened: as §1

blackgrass = experiment: Test A postemergence; type: in vivo, Alopecurus myosuroides; conditions: 0 to 100 scale, 0 no effect, 100 complete control
Procedure, shortened: as §1

galium = experiment: Test A postemergence; type: in vivo, Galium aparine; conditions: 0 to 100 scale, 0 no effect, 100 complete control
Procedure, shortened: as §1

rice = experiment: Test B flooded paddy test; type: in vivo, Oryza sativa; conditions: Flood, 250 g ai/ha; 0 to 100 scale where 0 is no effect and 100 is complete control
Procedure, shortened: (§2)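 Greenhouse flooded-pot test: compounds dosed into 3 cm standing water over 2-leaf plants, flood held constant. Rated visually after 13–15 days on 0–100 (complete control = 100); a dash marks no test result.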

sedge, umbrella = experiment: Test B flooded paddy test; type: in vivo, Cyperus difformis; conditions: Flood, 250 g ai/ha; 0 to 100 scale where 0 is no effect and 100 is complete control
Procedure, shortened: as §2

Heteranthera limosa = experiment: Test B flooded paddy test; type: in vivo; conditions: Flood, 250 g ai/ha; 0 to 100 scale where 0 is no effect and 100 is complete control
Procedure, shortened: as §2

barnyardgrass [13] = experiment: Test B flooded paddy test; type: in vivo, Echinochloa crus-galli; conditions: Flood, 250 g ai/ha; 0 to 100 scale where 0 is no effect and 100 is complete control
Procedure, shortened: as §2

[14] = 31 g ai/ha, 0 to 100 scale where 0 is no effect and 100 is complete control, visual, approximately 10 days

**Q.** Which “Plant response rating, Barnyardgrass” value (barnyardgrass [1]; [14]) does the source give for `Fc1cccc(Oc2ncc(Cl)cn2)c1-n1cc(OC(F)F)cn1` [Compound 271] here?
**A.** The value was 20.

**Q.** What about the “Barnyardgrass plant response rating (0 to 100 scale, 0 is no effect, 100 is complete control)” value (barnyardgrass [1]; 125 g ai/ha) of the same molecule?
**A.** The value was 100.

**Q.** And the “Plant response rating, Kochia” value (kochia [2]; [14])?
**A.** Its value is 70.

**Q.** What about the “Kochia plant response rating (0 to 100 scale)” value (kochia [2]; 125 g ai/ha) of the same molecule?
**A.** Its value is 100.

**Q.** And the “Plant response rating, Ragweed” value (ragweed [3]; [14])?
**A.** The value was 0.

**Q.** And the “Ragweed plant response rating (0 to 100 scale)” value (ragweed [3]; 125 g ai/ha)?
**A.** The value was 20.

**Q.** And the “Plant response rating, Ryegrass, Italian” value (Italian ryegrass [4]; [14])?
**A.** Its value is 0.

**Q.** And the “Ryegrass, Italian plant response rating (0 to 100 scale)” value (Italian ryegrass [4]; 125 g ai/ha)?
**A.** The value was 10.

**Q.** And the “Plant response rating, Foxtail, Giant” value (giant foxtail [5]; [14])?
**A.** The value was 40.

**Q.** What about the “Foxtail, Giant plant response rating (0 to 100 scale)” value (giant foxtail [5]; 125 g ai/ha) of the same molecule?
**A.** The value was 100.

**Q.** And the “Plant response rating, Pigweed” value (pigweed [6]; [14])?
**A.** Its value is 90.

**Q.** What about the “Pigweed plant response rating (0 to 100 scale)” value (pigweed [6]; 125 g ai/ha) of the same molecule?
**A.** The value was 100.

**Q.** And the “Plant response rating, Barnyardgrass” value (barnyardgrass [7]; 31 g ai/ha)?
**A.** Its value is 10.

**Q.** What about the “Plant response rating, Barnyardgrass” value (barnyardgrass [7]; 125 g ai/ha) of the same molecule?
**A.** The value was 80.

**Q.** And the “Plant response rating, Kochia” value (kochia [8]; 31 g ai/ha)?
**A.** Its value is 70.

**Q.** And the “Plant response rating, Kochia” value (kochia [8]; 125 g ai/ha)?
**A.** Its value is 100.

**Q.** And the “Plant response rating, Ragweed” value (ragweed [9]; 31 g ai/ha)?
**A.** Its value is 0.

**Q.** And the “Plant response rating, Ragweed” value (ragweed [9]; 125 g ai/ha)?
**A.** Its value is 80.

**Q.** What about the “Plant response rating, Ryegrass, Italian” value (Italian ryegrass [10]; 31 g ai/ha) of the same molecule?
**A.** The value was 0.

**Q.** And the “Plant response rating, Ryegrass, Italian” value (Italian ryegrass [10]; 125 g ai/ha)?
**A.** The value was 30.

**Q.** What about the “Plant response rating, Foxtail, Giant” value (giant foxtail [11]; 31 g ai/ha) of the same molecule?
**A.** The value was 10.

**Q.** What about the “Plant response rating, Foxtail, Giant” value (giant foxtail [11]; 125 g ai/ha) of the same molecule?
**A.** The value was 90.

**Q.** And the “Plant response rating, Pigweed” value (pigweed [12]; 31 g ai/ha)?
**A.** The value was 70.

**Q.** And the “Plant response rating, Pigweed” value (pigweed [12]; 125 g ai/ha)?
**A.** Its value is 100.

**Q.** And the “Plant response rating, Wheat” value (wheat; 31 g ai/ha)?
**A.** Its value is 0.

**Q.** What about the “Plant response rating, Wheat” value (wheat; 125 g ai/ha) of the same molecule?
**A.** The value was 40.

**Q.** And the “Plant response rating, Corn” value (corn; 31 g ai/ha)?
**A.** The value was 20.

**Q.** What about the “Plant response rating, Corn” value (corn; 125 g ai/ha) of the same molecule?
**A.** The value was 30.

**Q.** And the “Plant response rating, Blackgrass” value (blackgrass; 31 g ai/ha)?
**A.** Its value is 10.

**Q.** And the “Plant response rating, Blackgrass” value (blackgrass; 125 g ai/ha)?
**A.** The value was 80.

**Q.** What about the “Plant response rating, Galium” value (galium; 31 g ai/ha) of the same molecule?
**A.** The value was 70.

**Q.** And the “Plant response rating, Galium” value (galium; 125 g ai/ha)?
**A.** Its value is 100.

**Q.** And the “Plant response rating, Rice” value (rice)?
**A.** The value was 0.

**Q.** What about the “Plant response rating, Sedge, Umbrella” value (sedge, umbrella) of the same molecule?
**A.** The value was 60.

**Q.** And the “Plant response rating, Ducksalad” value (Heteranthera limosa)?
**A.** The value was 90.

**Q.** And the “Plant response rating, Barnyardgrass” value (barnyardgrass [13])?
**A.** The value was 0.

From patent US9695155B2, “Herbicidal substituted pyrimidinyloxy benzene compounds” (E. I. DU PONT DE NEMOURS AND COMPANY, priority 2013, dated 2017)
